Laboratory results: patent publication US10294202B2, “Pyrrolidinones as herbicides” (FMC Corporation, priority 2013, dated 2019)

Assays:
[1] = system: corn; experiment: Test A pre-/postemergence herbicide test; type: in vivo, Zea mays
Outline: (§1)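 Both application timings used compounds in a non-phytotoxic solvent plus surfactant. Pre-emergence: soil sprayed directly after seeding into loam/sand. Post-emergence: foliage of 2–10 cm seedlings (1–2 leaves) sprayed. Injury rated ~10 days later, 0–100.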

[2] = system: sedge, umbrella; experiment: Test B flooded paddy test; type: in vivo, Cyperus difformis; details: Flood, scale of 0 to 100 where 0 is no effect and 100 is complete control
Procedure: (§2) Plant species in the flooded paddy test selected from rice (Oryza sativa), sedge, umbrella (small-flower umbrella sedge, Cyperus difformis), ducksalad (Heteranthera limosa), and barnyardgrass (Echinochloa crus-galli) were grown to the 2-leaf stage for testing. At time of treatment, test pots were flooded to 3 cm above the soil surface, treated by application of test compounds directly to the paddy water, and then maintained at that water depth for the duration of the test. Treated plants and controls were maintained in a greenhouse for 13 to 15 days, after which time all species were compared to controls and visually evaluated. Plant response ratings, summarized in Table B, are based on a scale of 0 to 100 where 0 is no effect and 100 is complete control. A dash (-) response means no test result.

[3] = system: barnyardgrass; experiment: Test A pre-/postemergence herbicide test; type: in vivo, Echinochloa crus-galli
Outline: as §1

[4] = system: rice; experiment: Test B flooded paddy test; type: in vivo, Oryza sativa; details: Flood, scale of 0 to 100 where 0 is no effect and 100 is complete control
Procedure: as §2

[5] = system: wheat; experiment: Test A pre-/postemergence herbicide test; type: in vivo, Triticum aestivum
Outline: as §1

[6] = system: pigweed; experiment: Test A pre-/postemergence herbicide test; type: in vivo, Amaranthus retroflexus
Outline: as §1

[7] = system: crabgrass, large; experiment: Test A pre-/postemergence herbicide test; type: in vivo, Digitaria sanguinalis
Outline: as §1

[8] = system: morningglory; experiment: Test A pre-/postemergence herbicide test; type: in vivo, Ipomoea spp.
Outline: as §1

[9] = system: giant foxtail; experiment: Test A pre-/postemergence herbicide test; type: in vivo, Setaria faberii
Outline: as §1

[10] = system: velvetleaf; experiment: Test A pre-/postemergence herbicide test; type: in vivo, Abutilon theophrasti
Outline: as §1

[11] = system: barnyardgrass; experiment: Test B flooded paddy test; type: in vivo, Echinochloa crus-galli; details: Flood, scale of 0 to 100 where 0 is no effect and 100 is complete control
Outline: (§3)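 Paddy-water application at a 3 cm flood, young plants having two leaves. Water level maintained; greenhouse, 13–15 days; visual 0–100 control rating.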

[12] = system: ducksalad; experiment: Test B flooded paddy test; type: in vivo, Heteranthera limosa; details: Flood, scale of 0 to 100 where 0 is no effect and 100 is complete control
Outline: as §3

[13] = Postemergence, 125 g ai/ha, 0 to 100 scale, 0 no effect, 100 complete control
[14] = Postemergence, 500 g ai/ha, 0 to 100 scale (0 no effect, 100 complete control)
[15] = Preemergence, 125 g ai/ha, visual rating on 0 to 100 scale (0 no effect, 100 complete control)
[16] = preemergence, 500 g ai/ha, 0 to 100 scale
[17] = preemergence, 500 g ai/ha, 0 to 100 scale (0 no effect, 100 complete control)
[18] = Postemergence, 1000 g ai/ha, 0 to 100 scale (0 no effect, 100 complete control)
[19] = Preemergence, 1000 g ai/ha, visual rating on 0 to 100 scale (0 no effect, 100 complete control), approx. 10 days

Compound: N#Cc1cccc(C2CNC(=O)C2C(=O)Nc2cccc(F)c2F)c1 (racemic) [Compound 73]
- Plant response rating, Corn [1, 13]: 0
- Plant response rating, Corn [1, 14]: 0
- Corn plant response rating [1, 15]: 0
- Plant response rating, Corn [1, 16]: 0
- Plant response rating, Sedge, Umbrella ([2]; 250 g ai/ha): 0
- Plant response rating, Barnyardgrass [3, 13]: 70
- Plant response rating, Barnyardgrass [3, 14]: 80
- Barnyardgrass plant response rating [3, 15]: 50
- Plant response rating, Barnyardgrass [3, 17]: 80
- Plant response rating, Rice ([4]; 250 g ai/ha): 0
- Plant response rating, Wheat [5, 13]: 0
- Plant response rating, Wheat [5, 14]: 0
- Wheat plant response rating [5, 15]: 0
- Plant response rating, Wheat [5, 16]: 0
- Plant response rating, Pigweed [6, 14]: 0
- Pigweed plant response rating [6, 15]: 0
- Plant response rating, Pigweed [6, 16]: 0
- Plant response rating, Crabgrass, Large [7, 13]: 50
- Plant response rating, Crabgrass, Large [7, 14]: 80
- Crabgrass, Large plant response rating [7, 15]: 80
- Plant response rating, Crabgrass, Large [7, 16]: 90
- Plant response rating, Morningglory [8, 13]: 0
- Plant response rating, Morningglory [8, 14]: 20
- Morningglory plant response rating [8, 15]: 0
- Plant response rating, Morningglory [8, 16]: 0
- Plant response rating, Foxtail, Giant [9, 13]: 30
- Plant response rating, Foxtail, Giant [9, 14]: 80
- Foxtail, Giant plant response rating [9, 15]: 80
- Plant response rating, Foxtail, Giant [9, 16]: 90
- Plant response rating, Velvetleaf [10, 13]: 0
- Plant response rating, Velvetleaf [10, 14]: 30
- Velvetleaf plant response rating [10, 15]: 0
- Plant response rating, Velvetleaf [10, 16]: 0
- Plant response rating, Barnyardgrass ([11]; 250 g ai/ha): 0
- Plant response rating, Ducksalad ([12]; 250 g ai/ha): 60

Compound: O=C1NCC(c2ccc(F)c(F)c2)C1C(=O)Nc1ccc[nH]c1=O (racemic) [Compound 97]
- Plant response rating, Corn [1, 13]: 0
- Plant response rating, Corn [1, 14]: 0
- Corn plant response rating [1, 15]: 0
- Plant response rating, Corn [1, 16]: 0
- Plant response rating, Sedge, Umbrella ([2]; 250 g ai/ha): 75
- Plant response rating, Barnyardgrass [3, 13]: 0
- Plant response rating, Barnyardgrass [3, 14]: 0
- Barnyardgrass plant response rating [3, 15]: 0
- Plant response rating, Barnyardgrass [3, 17]: 0
- Plant response rating, Rice ([4]; 250 g ai/ha): 50
- Plant response rating, Wheat [5, 13]: 0
- Plant response rating, Wheat [5, 14]: 0
- Wheat plant response rating [5, 15]: 0
- Plant response rating, Wheat [5, 16]: 0
- Plant response rating, Pigweed [6, 13]: 0
- Plant response rating, Pigweed [6, 14]: 0
- Pigweed plant response rating [6, 15]: 0
- Plant response rating, Pigweed [6, 16]: 0
- Plant response rating, Crabgrass, Large [7, 13]: 0
- Plant response rating, Crabgrass, Large [7, 14]: 0
- Crabgrass, Large plant response rating [7, 15]: 0
- Plant response rating, Crabgrass, Large [7, 16]: 0
- Plant response rating, Morningglory [8, 13]: 0
- Plant response rating, Morningglory [8, 14]: 0
- Morningglory plant response rating [8, 15]: 0
- Plant response rating, Morningglory [8, 16]: 0
- Plant response rating, Foxtail, Giant [9, 13]: 0
- Plant response rating, Foxtail, Giant [9, 14]: 0
- Foxtail, Giant plant response rating [9, 15]: 0
- Plant response rating, Foxtail, Giant [9, 16]: 0
- Plant response rating, Velvetleaf [10, 13]: 0
- Plant response rating, Velvetleaf [10, 14]: 0
- Velvetleaf plant response rating [10, 15]: 0
- Plant response rating, Velvetleaf [10, 16]: 0
- Plant response rating, Barnyardgrass ([11]; 250 g ai/ha): 50
- Plant response rating, Ducksalad ([12]; 250 g ai/ha): 70

Compound: O=C1NCC(c2ccc(F)c(F)c2)C1C(=O)Nc1cccc(Cl)c1F (racemic) [Compound 104]
- Plant response rating, Corn [1, 18]: 0
- Plant response rating, Corn [1, 19]: 20
- Plant response rating, Sedge, Umbrella ([2]; 1000 g ai/ha): 0
- Plant response rating, Barnyardgrass [3, 18]: 80
- Plant response rating, Barnyardgrass [3, 19]: 80
- Plant response rating, Rice ([4]; 1000 g ai/ha): 0
- Plant response rating, Wheat [5, 18]: 0
- Plant response rating, Wheat [5, 19]: 20
- Plant response rating, Pigweed [6, 18]: 0
- Plant response rating, Pigweed [6, 19]: 0
- Plant response rating, Crabgrass, Large [7, 18]: 80
- Plant response rating, Crabgrass, Large [7, 19]: 90
- Plant response rating, Morningglory [8, 18]: 0
- Plant response rating, Morningglory [8, 19]: 0
- Plant response rating, Foxtail, Giant [9, 18]: 70
- Plant response rating, Foxtail, Giant [9, 19]: 90
- Plant response rating, Velvetleaf [10, 18]: 10
- Plant response rating, Velvetleaf [10, 19]: 0
- Plant response rating, Barnyardgrass ([11]; 1000 g ai/ha): 70
- Plant response rating, Ducksalad ([12]; 1000 g ai/ha): 95
